Experimental findings from patent publication US10302631B2, “Genetically encoded probe for quantification of pyruvate concentration and methods of using the same” (CENTRO DE ESTUDIOS CLENTIFICOS DE VALDIVIA, priority 2013, dated 2019) are described below.

One assay deals with HEK293 cells. As to the kind of experiment: Rate of cellular pyruvate production after MCT blockage. In kind it is cell-based. The method, then: In this second embodiment cells are incubated under physiological concentrations of glucose, lactate and pyruvate, and with the information obtained in the calibration step and the known sensitivity of surface pyruvate transporters to specific inhibitors, the steady-state of pyruvate is acutely disrupted by blocking the function of pyruvate transporter, for example by addition of a pharmacological blocker of the pyruvate transporter. In mammalian cells, the pyruvate transporter is the MCT and can be blocked with phloretin, parachloromercurybenzoate, AR-C155858, anti-MCT antisera, or other suitable compounds. […] If the cell is a net pyruvate importer, application of the MCT-blocker causes a fall in intracellular pyruvate concentration, the initial rate of which is equal to the rate of pyruvate consumption on the steady-state. […] A critical property of this sensor is that has a single component of binding so that it allows accurate quantitation of these rates. […]
Fluorescence Measurements. Nickel-purified proteins were resuspended at 100 nM in an intracellular buffer containing (mM): 10 NaCl, 130 KCl, 1.25 MgSO4 and 10 HEPES, pH 7.0, and measured with a microplate reader analyzer (EnVision, PerkinElmer). The proteins were excited at 430 nm and the intensity of fluorescence emission of mTFP and Venus were recorded at 485 nm (FmTFP) and 528 nm (FVenus), respectively. […]

Assay [1] relates to monocarboxylate transporter (MCT). As to the kind of experiment: Initial rate of uptake of 1 mM pyruvate measured with the sensor, inhibition by MCT blockers. It is filed as cell-based, mice. The note with it: astrocytic uptake. As to the method: In this first embodiment, with the information obtained in the calibration step, the disruption of the steady-state of pyruvate entering the cell is carried out by altering the extracellular concentration of pyruvate, thus exposing the cells to pyruvate. This causes a rise in intracellular pyruvate that is monitored with the pyruvate sensor and whose initial rate is independent of pyruvate metabolism and can be used to estimate kinetic parameters (FIG. 18). Exposure of the cells to increasing concentrations of pyruvate allows the estimation of kinetic parameters for the pyruvate transporter. Kinetic parameters are also obtained from the decrease in intracellular pyruvate after removal of extracellular pyruvate. The identity of the transport pathway for pyruvate can be determined by the use of pharmacological blockers of specific transporter proteins, such as phloretin or AR-C155858 (FIG. 18 and FIG. 19), or other such as parachloromercurybenzoate, anti-MCT antisera, etc., or with compounds that interfere with the expression of specific transporter proteins, such as shRNA or siRNA, or by other similar means.
Animals and Cell Cultures. […]
Fluorescence Measurements. Nickel-purified proteins were resuspended at 100 nM in an intracellular buffer containing (mM): 10 NaCl, 130 KCl, 1.25 MgSO4 and 10 HEPES, pH 7.0, and measured with a microplate reader analyzer (EnVision, PerkinElmer). […]

Assay [2] relates to mitochondrial pyruvate consumption in HEK293 cells. Nature of the assay: Rate of mitochondrial pyruvate consumption, pyruvate as exclusive substrate, after MCT blockage. It is filed as cell-based.
The next assay deals with Pyronic. Nature of the assay: Specificity: effect of a panel of metabolites on the purified sensor and on its response to pyruvate. It is filed as biochemical, Escherichia coli. The method, then:
The specificity was investigated by exposing the sensor to high concentrations of a panel of metabolites of natural occurrence (FIG. 9). From the chosen set of molecules, citrate and oxalacetate produced a modest effect at 1 mM, and a very small at 100 μM Oxalacetate levels are in the low micromolar range and should not affect the pyruvate sensor, and cytosolic citrate levels are below 100 μM (Siess et al., 1978; Kauppinen et al., 1982), and therefore should have a negligible effect on the pyruvate sensor. Further to explore the specificity, the effect of a panel of metabolites on the response of the sensor to pyruvate was explored (FIGS. 10, 11 and 12). […] The response of the sensor to pyruvate was insensitive to the extreme values of the redox ratio, achieved by manipulating NAD^+ and NADH (FIG. 13).
Fluorescence Measurements. Nickel-purified proteins were resuspended at 100 nM in an intracellular buffer containing (mM): 10 NaCl, 130 KCl, 1.25 MgSO4 and 10 HEPES, pH 7.0, and measured with a microplate reader analyzer (EnVision, PerkinElmer). The proteins were excited at 430 nm and the intensity of fluorescence emission of mTFP and Venus were recorded at 485 nm (FmTFP) and 528 nm (FVenus), respectively. The ratio (R) between FmTFP and FVenus was used to characterize the sensors. Emission spectra were obtained at 430 nm excitation, with 2 nm windows. Cells were imaged at room temperature (22-25° C.) in a 95% air/5% CO2-gassed solution of the following composition (in mM): 112 NaCl, 1.25 CaCl2, 1.25 MgSO4, 1-2 glucose, 10 HEPES, 24 NaHCO^3, pH 7.4, with 3 mM KCl (astrocytes) or 5 mM KCl (HEK and T98G) using an upright Olympus FV1000 Confocal Microscope equipped with a 20× water immersion objective (N.A. 1.0) and a 440 nm solid-state laser. Alternatively, cells were imaged with an Olympus IX70 or with an Olympus BX51 microscope equipped with a 40× oil-immersion objective (NA 1.3) or with a 20× water-immersion objective (NA 0.95). Microscopes were equipped with CAIRN monochromators (Faversham, UK), and either a Hamamatsu Orca camera controlled by Kinetics software or a Rollera camera controlled with Metafluor software, respectively. For sensor ratio measurements, cells were excited at 430 nm for 0.2-0.8 s. Emission was divided with a CAIRN Optosplit, equipped with band pass filters at 480±20 (FmTFP) and 535±15 nm (FVenus). The ratio between FmTFP and FVenus was used to measure pyruvate.

As to `Cc1n[nH]c(C)c1Cc1sc2c(c1C(=O)N1C[C@H](O)CO1)c(=O)n(C)c(=O)n2CC(C)C` [AR-C155858], in the assay on HEK293 cells (HEK293 cells, blocker at 1 μM), the “change in intracellular pyruvate after MCT blockage” value was “increase in intracellular pyruvate”. The “rate of accumulation of intracellular pyruvate after MCT blockage” value in the assay with HEK293 cells (single HEK293 cell) is 0.72 µM/s. The “inhibition of initial rate of uptake of 1 mM pyruvate” value in assay [1] (blocker at 1 μM) is “strongly inhibited”. Further, in assay [2] (cells deprived of glucose, high extracellular pyruvate), the “change in cytosolic pyruvate concentration after MCT blockage” value was “fall in the cytosolic pyruvate concentration”. Further, in assay [2] (single HEK293 cell, pyruvate as exclusive substrate), the “rate of decrease in intracellular pyruvate after MCT blockage” value came out at 1.73 µM/s.
Regarding `O=C(O)CC(O)(CC(=O)O)C(=O)O` [citrate], in the assay on Pyronic (metabolite at 100 μM), the “effect on the fluorescence ratio of the sensor” value (“effect on the fluorescence ratio” for short) is “very small” and the “effect on the response of the sensor to pyruvate” value is given as “very small effect”. In the assay on Pyronic (metabolite at 1 mM), the “effect on the fluorescence ratio” value is “modest effect” and the “effect on the response of the sensor to pyruvate” value is recorded as “significant effect”.
For `O=C(O)CC(=O)C(=O)O` [oxalacetate], the “effect on the fluorescence ratio” value is given as “very small” in the assay with Pyronic (metabolite at 100 μM) and “modest effect” in the assay with Pyronic (metabolite at 1 mM).
`O=C(CCc1ccc(O)cc1)c1c(O)cc(O)cc1O` [phloretin]: the “inhibition of initial rate of uptake of 1 mM pyruvate” value in assay [1] (blocker at 50 μM) was “strongly inhibited”.
